Laboratory results reported in patent US10829458B2 (Araxes Pharma LLC, priority 2015, dated 2020).

Target: T1, KRAS G12C 1-169, his-tagged protein, GDP-loaded (Homo sapiens, UniProt P01116, G12C)
T1 construct: KRAS G12C 1-169, his-tagged protein, GDP-loaded
Test: Biochemical assay: covalent modification of KRAS G12C measured by mass spectrometry (RapidFire/TOF or Q-Exactive)
Conditions: covalent binding to KRAS G12C
Outline: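 GDP-loaded his-tagged KRAS G12C 1-169 at 2 μM in 20 mM Hepes, 150 mM NaCl, 1 mM MgCl2 incubated at room temperature with compound (10, 30 or 100 μM final, 2% DMSO) for 30 min, 2 h or 24 h, then quenched with formic acid. Intact-protein LC-MS (RapidFire/TOF or Q-Exactive) with deconvolution quantified modified versus unmodified protein.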

| Compound | Binding % (compounds of structure (I)) | other results |
| --- | --- | --- |
| C=CC(=O)N1[C@H](C)CN(c2ncnc3c(F)c(-c4c(C)ccc5[nH]ncc45)c(Cl)cc23)C[C@@H]1C [III-26, 1-((2S,6R)-4-(6-chloro-8-fluoro-7-(5-methyl-1H-indazol-4-yl)quinazolin-4-yl)-2,6-dimethyl-piperazin-1-yl)prop-2-en-1-one] | – | Binding % (compounds of structure (III)): ++ (++ indicates activity from 50% to 90%) |
| C=CC(=O)N1CCN(c2nc(OC3CN(C4CCOCC4)C3)nc3c(F)c(-c4c(O)cccc4F)c(Cl)cc23)CC1 [Example I-186, 1-(4-(6-chloro-8-fluoro-7-(2-fluoro-6-hydroxyphenyl)-2-((1-(tetrahydro-2H-pyran-4-yl)azetidin-3-yl)oxy)quinazolin-4-yl)piperazin-1-yl) prop-2-en-1-one] | ++ (++ indicates binding activity from 50 to 90%) | – |
| O=C(/C=C/CN1CCOCC1)N1CCN(c2ncnc3c(F)c(-c4c(O)cccc4F)c(Cl)cc23)CC1 [II-1, (E)-1-(4-(6-chloro-8-fluoro-7-(2-fluoro-6-hydroxyphenyl)quinazolin-4-yl)piperazin-1-yl)-4-morpholinobut-2-en-1-one] | – | Binding % (compounds of structure (II)): + (+ indicates binding activity up to 50%) |
| C=CC(=O)N1CCN(c2nc(OC3CCN(C)CC3)nc3c(F)c(-c4c(C)ccc5[nH]ncc45)c(Cl)cc23)CC1 [Example I-59, 1-(4-(6-chloro-8-fluoro-7-(5-methyl-1H-indazol-4-yl)-2-(1-methyl-piperidin-4-yloxy)quinazolin-4-yl)piperazin-1-yl)prop-2-en-1-one] | +++ (+++ indicates binding activity greater than 90%) | – |
| C=CC(=O)N1CCN(c2nc(OCCN3CCOCC3)nc3c(F)c(-c4c(O)ccc(F)c4F)c(Cl)cc23)CC1 [Example I-91, 1-(4-(6-chloro-7-(2,3-difluoro-6-hydroxyphenyl)-8-fluoro-2-(2-morpholino-ethoxy)quinazolin-4-yl)piperazin-1-yl)prop-2-en-1-one] | +++ (+++ indicates binding activity greater than 90%) | – |
| C=CC(=O)N1CCN(c2nc(OCC3CCOCC3)nc3c(F)c(-c4c(C)ccc5[nH]ncc45)c(Cl)cc23)CC1 [Example I-15, 1-(4-(6-chloro-8-fluoro-7-(5-methyl-1H-indazol-4-yl)-2-((tetrahydro-2H-pyran-4-yl)methoxy)quinazolin-4-yl)piperazin-1-yl)prop-2-en-1-one] | +++ (+++ indicates binding activity greater than 90%) | – |
| C=CC(=O)N1CCN(c2nc(NC3CN(C(C)C)C3)nc3c(F)c(-c4c(C)ccc5[nH]ncc45)c(Cl)cc23)CC1 [Example I-173, 1-(4-(6-chloro-8-fluoro-2-((1-isopropyl-azetidin-3-yl)amino)-7-(5-methyl-1H-indazol-4-yl)quinazolin-4-yl)piperazin-1-yl) prop-2-en-1-one] | + (+ indicates binding activity up to 50%) | – |
| C=CC(=O)N1CCN(c2nc(OC3CCN(C4CC4)CC3)nc3c(F)c(-c4c(C)ccc5[nH]ncc45)c(Cl)cc23)CC1 [Example I-138] | +++ (+++ indicates binding activity greater than 90%) | – |
| O=C(/C=C/CN1CCC1)N1CCN(c2ncnc3c(F)c(-c4c(O)cccc4F)c(Cl)cc23)CC1 [II-2, (E)-4-(azetidin-1-yl)-1-(4-(6-chloro-8-fluoro-7-(2-fluoro-6-hydroxyphenyl)quinazolin-4-yl)piperazin-1-yl)but-2-en-1-one] | – | Binding % (compounds of structure (II)): +++ (+++ indicates binding activity of 75% or greater) |
| C=CC(=O)N1CCN(c2nc(NC3CCN(C)CC3)nc3c(F)c(-c4c(O)cccc4F)c(Cl)cc23)CC1 [Example I-3, 1-(4-(6-chloro-8-fluoro-7-(2-fluoro-6-hydroxyphenyl)-2-(1-methylpiperidin-4-ylamino)quinazolin-4-yl)piperazin-1-yl) prop-2-en-1-one] | +++ (+++ indicates binding activity greater than 90%) | – |
| C=CC(=O)N1CCN(c2ncnc3c(F)c(-c4c(O)cccc4F)c(Cl)cc23)C2CC21 (stereo not shown) [III-16, 1-(5-(6-chloro-8-fluoro-7-(2-fluoro-6-hydroxy-phenyl)quinazolin-4-yl)-2,5-diazabicyclo [4.1.0.]heptan-2-yl)prop-2-en-1-one] | – | Binding % (compounds of structure (III)): + (+ indicates binding activity up to 50%) |
| C=CC(=O)N1CCN(c2nc(N3CC(N(CC)CC)C3)nc3c(F)c(-c4c(O)cccc4F)c(Cl)cc23)CC1 [Example I-131, 1-(4-(6-chloro-2-(3-(diethyl-amino)azetidin-1-yl)-8-fluoro-7-(2-fluoro-6-hydroxyphenyl)quinazolin-4-yl)piperazin-1-yl) prop-2-en-1-one] | +++ (+++ indicates binding activity greater than 90%) | – |
| C=CC(=O)N1CCN(c2nc(OCc3ccnnc3)nc3c(F)c(-c4c(O)cccc4F)c(Cl)cc23)CC1 [Example I-127, 1-(4-(6-chloro-8-fluoro-7-(2-fluoro-6-hydroxyphenyl)-2-(pyridazin-4-ylmethoxy)quinazolin-4-yl)piperazin-1-yl) prop-2-en-1-one] | +++ (+++ indicates binding activity greater than 90%) | – |
| C=CC(=O)N1CCN(c2nc(NC3CCN(C4CC4)CC3)nc3c(F)c(-c4cc(O)cc5ccccc45)c(Cl)cc23)CC1 [Example I-75, 1-(4-(6-chloro-2-(1-cyclo-propylpiperidin-4-ylamino)-8-fluoro-7-(3-hydroxy-naphthalen-1-yl)quinazolin-4-yl)piperazin-1-yl)prop-2-en-1-one] | +++ (+++ indicates binding activity greater than 90%) | – |
| C=CC(=O)N1CCN(c2ncnc3c(F)c(-c4c(O)cccc4F)c(Cl)cc23)C2(CC2)C1 [III-31, 1-(4-(6-chloro-8-fluoro-7-(2-fluoro-6-hydroxy-phenyl)quinazolin-4-yl)-4,7-diazaspiro [2.5]octan-7-yl)prop-2-en-1-one] | – | Binding % (compounds of structure (III)): + (+ indicates binding activity up to 50%) |
| C=CC(=O)N1CCN(c2nc(NCCO)nc3c(F)c(-c4c(C)ccc5[nH]ncc45)c(Cl)cc23)CC1 [Example I-5, 1-(4-(6-chloro-8-fluoro-2-(2-hydroxyethyl-amino)-7-(5-methyl-1H-indazol-4-yl)quinazolin-4-yl)piperazin-1-yl)prop-2-en-1-one] | + (+ indicates binding activity up to 50%) | – |
| C=CC(=O)N1CCN(c2nc(OCCN3CC(F)(F)C3)nc3c(F)c(-c4c(O)cccc4F)c(Cl)cc23)CC1 (atropisomer, axis not shown) [Example I-126, (R)-1-(4-(6-chloro-2-(2-(3,3-difluoro-azetidin-1-yl)ethoxy)-8-fluoro-7-(2-fluoro-6-hydroxyphenyl)quinazolin-4-yl)piperazin-1-yl) prop-2-en-1-one] | + (+ indicates binding activity up to 50%) | – |
| C=CC(=O)N1CCN(c2nc(OCc3ncco3)nc3c(F)c(-c4c(O)cccc4F)c(Cl)cc23)CC1 [Example I-109, 1-(4-(6-chloro-8-fluoro-7-(2-fluoro-6-hydroxyphenyl)-2-(oxazol-2-ylmethoxy)quinazolin-4-yl)piperazin-1-yl) prop-2-en-1-one] | +++ (+++ indicates binding activity greater than 90%) | – |
| C=CC(=O)N1CCN(c2nc(COCc3ncccc3F)nc3c(F)c(-c4c(O)cccc4F)c(Cl)cc23)CC1 [Example I-210, 1-(4-(6-chloro-8-fluoro-7-(2-fluoro-6-hydroxyphenyl)-2-(((3-fluoro-pyridin-2-yl)methoxy)methyl)quinazolin-4-yl)piperazin-1-yl) prop-2-en-1-one] | +++ (+++ indicates binding activity greater than 90%) | – |
| C=CC(=O)N1CC2(CCN(c3ncnc4c(F)c(-c5c(O)cccc5F)c(Cl)cc34)C2)C1 [II-4, 1-(6-(6-chloro-8-fluoro-7-(2-fluoro-6-hydroxyphenyl)quinazolin-4-yl)-2,6-diazaspiro[3.4]octan-2-yl)prop-2-en-1-one] | – | Binding % (compounds of structure (II)): + (+ indicates binding activity up to 50%) |
| C=CC(=O)N1CCN(c2nc(C#N)nc3c(F)c(-c4c(O)cccc4F)c(Cl)cc23)CC1 [Example I-68, 4-(4-acryloyl-piperazin-1-yl)-6-chloro-8-fluoro-7-(2-fluoro-6-hydroxyphenyl) quinazoline-2-carbonitrile] | +++ (+++ indicates binding activity greater than 90%) | – |
| C=CC(=O)N1CCN(c2nc(NCCN3CC(F)(F)C3)nc3c(F)c(-c4c(O)cccc4F)c(Cl)cc23)CC1 [Example I-143, 1-(4-(6-chloro-2-(2-(3,3-difluoro-azetidin-1-yl)ethylamino)-8-fluoro-7-(2-fluoro-6-hydroxyphenyl)quinazolin-4-yl)piperazin-1-yl) prop-2-en-1-one] | +++ (+++ indicates binding activity greater than 90%) | – |
| C=CC(=O)N1CCN(c2nc(OCC3OCCO3)nc3c(F)c(-c4c(C)ccc5[nH]ncc45)c(Cl)cc23)CC1 [Example I-164, 1-(4-(2-((1,3-dioxolan-2-yl)methoxy)-6-chloro-8-fluoro-7-(5-methyl-1H-indazol-4-yl)quinazolin-4-yl)piperazin-1-yl) prop-2-en-1-one] | ++ (++ indicates binding activity from 50 to 90%) | – |
| C=CC(=O)N1CCN(c2nc(N3CC(C)(N(C)C)C3)nc3c(F)c(-c4c(O)cccc4F)c(Cl)cc23)CC1 [Example I-149, 1-(4-(6-chloro-2-(3-(dimethyl-amino)-3-methyl-azetidin-1-yl)-8-fluoro-7-(2-fluoro-6-hydroxyphenyl)quinazolin-4-yl)piperazin-1-yl) prop-2-en-1-one] | +++ (+++ indicates binding activity greater than 90%) | – |
| C=CC(=O)N1CCN(c2nc(NCCc3ccccn3)nc3c(F)c(-c4c(O)cccc4F)c(Cl)cc23)CC1 [Example I-153, 1-(4-(6-chloro-8-fluoro-7-(2-fluoro-6-hydroxyphenyl)-2-(2-(pyridin-2-yl)ethylamino)quinazolin-4-yl)piperazin-1-yl) prop-2-en-1-one] | +++ (+++ indicates binding activity greater than 90%) | – |
